Laboratory results taken from PubChem BioAssay AID248 (DTP/NCI, 2004).
“And” between values parts separate entries of the source, which are not always exact repeats. Equal entries are not always repeated. Toxic doses and inconclusive results are not listed. Square brackets hold non-standard residues; d marks the D form. Peptide text beside a SMILES is read from it. Ac5c = NC1(C(=O)O)CCCC1

Tested on: L1210 leukemia ip in BDF1 mice, survival T/C
Assay: NCI In Vivo Anticancer Drug Screen. Data for tumor model L1210 Leukemia (intraperitoneal) in B6D2F1 (BDF1) mice
Settings: endpoint: mean survival time, higher = longer survival
How it was run: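 Antitumor effect is assessed in tumor-bearing animals. Survival in the compound arm is compared with a vehicle-dosed control arm and expressed as their quotient.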

[1] = dose: 12.5 mg/kg/injection, schedule: Q01DX009 (ip), vehicle: Klucel (hydroxypropylcellulose) (HPC)
[2] = dose: 25.0 mg/kg/injection, schedule: Q01DX009 (ip), vehicle: Klucel (hydroxypropylcellulose) (HPC)
[3] = dose: 100.0 mg/kg/injection, schedule: Q01DX009 (ip), vehicle: saline with Tween-80
[4] = dose: 200.0 mg/kg/injection, schedule: Q01DX009 (ip), vehicle: saline with Tween-80
[5] = dose: 400.0 mg/kg/injection, schedule: Q01DX009 (ip), vehicle: saline with Tween-80
[6] = dose: 100.0 mg/kg/injection, schedule: Q04DX002 (ip), vehicle: Klucel (hydroxypropylcellulose) (HPC)
[7] = dose: 200.0 mg/kg/injection, schedule: Q04DX002 (ip), vehicle: Klucel (hydroxypropylcellulose) (HPC)
[8] = dose: 400.0 mg/kg/injection, schedule: Q04DX002 (ip), vehicle: Klucel (hydroxypropylcellulose) (HPC)
[9] = dose: 100.0 mg/kg/injection, schedule: Q01DX001 (ip), vehicle: saline
[10] = dose: 200.0 mg/kg/injection, schedule: Q01DX001 (ip), vehicle: saline
[11] = dose: 400.0 mg/kg/injection, schedule: Q01DX001 (ip), vehicle: saline
[12] = dose: 100.0 mg/kg/injection, schedule: Q04DX003 (ip), vehicle: Klucel (hydroxypropylcellulose) (HPC)
[13] = dose: 200.0 mg/kg/injection, schedule: Q04DX003 (ip), vehicle: Klucel (hydroxypropylcellulose) (HPC)

With `O=C(c1cccc([N+](=O)[O-])c1)c1[nH]c2sc3c(c2c1O)CCCC3` the T/C (dose: 6.25 mg/kg/injection, schedule: Q01DX009 (ip), vehicle: Klucel (hydroxypropylcellulose) (HPC)) was 92 % of control, the T/C [1] was 94 % of control and 91 % of control and the T/C [2] was 89 % of control.
`Cc1cc2nc3c(nc2cc1C)-c1ccccc1C3=O` was tested, and the T/C [3] was 117 % of control, the T/C [4] was 101 % of control and the T/C [5] was 97 % of control.
With `COCCCNC(=S)C(=S)NCCCOC` the T/C [6] was 97 % of control and the T/C [7] was 107 % of control.
With `O=C1c2ccccc2-c2c(Br)cccc21` the T/C (dose: 50.0 mg/kg/injection, schedule: Q04DX002 (ip), vehicle: saline with Tween-80) was 91 % of control, the T/C (dose: 100.0 mg/kg/injection, schedule: Q04DX002 (ip), vehicle: saline with Tween-80) was 91 % of control and the T/C (dose: 200.0 mg/kg/injection, schedule: Q04DX002 (ip), vehicle: saline with Tween-80) was 102 % of control.
In the case of `N#Cc1cnn2c(=O)[nH]cnc12`, the T/C (dose: 100.0 mg/kg/injection, schedule: Q01DX009 (ip), vehicle: saline sonified) is reported as 95 % of control, the T/C (dose: 100.0 mg/kg/injection, schedule: Q04DX003 (ip), vehicle: saline sonified) is reported as 93 % of control and the T/C (dose: 200.0 mg/kg/injection, schedule: Q01DX009 (ip), vehicle: saline sonified) is reported as 91 % of control. For the same compound, the T/C (dose: 200.0 mg/kg/injection, schedule: Q04DX003 (ip), vehicle: saline sonified) was 101 % of control and the T/C (dose: 400.0 mg/kg/injection, schedule: Q04DX003 (ip), vehicle: saline sonified) was 95 % of control.
In the case of `O=S1C=Cc2ccccc21` (stereo unspecified), the T/C [6] is reported as 101 % of control, the T/C [7] is reported as 116 % of control and the T/C [8] is reported as 105 % of control.
In the case of `Nc1c2c([nH]c(=O)c1N=O)CCC2`, the T/C (dose: 50.0 mg/kg/injection, schedule: Q01DX001 (ip), vehicle: saline) is reported as 95 % of control, the T/C [9] is reported as 93 % of control and the T/C [10] is reported as 95 % of control. For the same compound, the T/C [11] was 104 % of control.
With `O=C(Nc1ccccc1C(=O)c1ccccn1)c1ccccc1` the T/C [12] was 104 % of control, the T/C [13] was 98 % of control and the T/C (dose: 400.0 mg/kg/injection, schedule: Q04DX003 (ip), vehicle: Klucel (hydroxypropylcellulose) (HPC)) was 101 % of control.
`COc1cc2cc(C(=O)O)sc2cc1OC` was tested, and the T/C [9] was 91 % of control, the T/C [10] was 91 % of control and the T/C [11] was 91 % of control.
In the case of `O=COCCN(C=O)c1ccc(C(=O)O)cc1`, the T/C (dose: 75.0 mg/kg/injection, schedule: Q01DX009 (ip), vehicle: Klucel (hydroxypropylcellulose) (HPC)) is reported as 92 % of control, the T/C (dose: 150.0 mg/kg/injection, schedule: Q01DX009 (ip), vehicle: Klucel (hydroxypropylcellulose) (HPC)) is reported as 87 % of control and the T/C (dose: 300.0 mg/kg/injection, schedule: Q01DX009 (ip), vehicle: Klucel (hydroxypropylcellulose) (HPC)) is reported as 88 % of control.
In the case of `NC(=O)NN=C1CSSC1`, the T/C (dose: 1.56 mg/kg/injection, schedule: Q01DX009 (ip), vehicle: saline with Tween-80) is reported as 101 % of control, the T/C (dose: 3.12 mg/kg/injection, schedule: Q01DX009 (ip), vehicle: saline with Tween-80) is reported as 99 % of control and the T/C (dose: 6.25 mg/kg/injection, schedule: Q01DX009 (ip), vehicle: saline with Tween-80) is reported as 94 % of control. For the same compound, the T/C (dose: 6.25 mg/kg/injection, schedule: Q04DX003 (ip), vehicle: saline with Tween-80) was 97 % of control, the T/C (dose: 12.5 mg/kg/injection, schedule: Q01DX009 (ip), vehicle: saline with Tween-80) was 98 % of control and 106 % of control and the T/C (dose: 12.5 mg/kg/injection, schedule: Q04DX003 (ip), vehicle: saline with Tween-80) was 97 % of control.
For `O=C(CCCN1CCN(c2ccccn2)CC1)c1ccc(F)cc1`, the T/C [1] was 96 % of control and 106 % of control, the T/C [2] was 97 % of control and 101 % of control and 106 % of control and the T/C (dose: 25.0 mg/kg/injection, schedule: Q04DX003 (ip), vehicle: Klucel (hydroxypropylcellulose) (HPC)) was 97 % of control. The T/C (dose: 50.0 mg/kg/injection, schedule: Q01DX009 (ip), vehicle: Klucel (hydroxypropylcellulose) (HPC)) was 108 % of control and 109 % of control and 114 % of control, the T/C (dose: 50.0 mg/kg/injection, schedule: Q04DX003 (ip), vehicle: Klucel (hydroxypropylcellulose) (HPC)) was 108 % of control and the T/C (dose: 100.0 mg/kg/injection, schedule: Q01DX009 (ip), vehicle: Klucel (hydroxypropylcellulose) (HPC)) was 108 % of control and 110 % of control. The T/C [12] was 103 % of control, the T/C (dose: 200.0 mg/kg/injection, schedule: Q01DX009 (ip), vehicle: Klucel (hydroxypropylcellulose) (HPC)) was 105 % of control and 110 % of control and the T/C [13] was 123 % of control.
In the case of `Cc1ccc(CNC(=O)Nc2cccc(Cl)c2)cc1`, the T/C [6] is reported as 115 % of control, the T/C [7] is reported as 102 % of control and the T/C [8] is reported as 108 % of control.
In the case of `ClCCN(CCCl)c1ccc(C=NCCCN=Cc2ccc(N(CCCl)CCCl)cc2Cl)c(Cl)c1`, the T/C (dose: 100.0 mg/kg/injection, schedule: Q01DX001 (ip), vehicle: carboxymethylcellulose (CMC)) is reported as 97 % of control, the T/C (dose: 200.0 mg/kg/injection, schedule: Q01DX001 (ip), vehicle: carboxymethylcellulose (CMC)) is reported as 92 % of control and the T/C (dose: 400.0 mg/kg/injection, schedule: Q01DX001 (ip), vehicle: carboxymethylcellulose (CMC)) is reported as 95 % of control.
`NCC(=O)NC1(C(=O)O)CCCC1` (H-Gly-[Ac5c]-OH) was tested, and the T/C (dose: 16.0 mg/kg/injection, schedule: Q01DX Z (ip), vehicle: carboxymethylcellulose (CMC)) was 104 % of control, the T/C (dose: 24.0 mg/kg/injection, schedule: Q01DX Z (ip), vehicle: carboxymethylcellulose (CMC)) was 109 % of control and the T/C (dose: 30.0 mg/kg/injection, schedule: Q01DX Z (ip), vehicle: other) was 103 % of control. For the same compound, the T/C (dose: 36.0 mg/kg/injection, schedule: Q01DX Z (ip), vehicle: carboxymethylcellulose (CMC)) was 118 % of control, the T/C (dose: 54.0 mg/kg/injection, schedule: Q01DX017 (ip), vehicle: saline) was 157 % of control and the T/C (dose: 54.0 mg/kg/injection, schedule: Q01DX Z (ip), vehicle: saline) was 121 % of control. The T/C (dose: 66.0 mg/kg/injection, schedule: Q01DX Z (ip), vehicle: saline) was 115 % of control, the T/C (dose: 100.0 mg/kg/injection, schedule: Q04DX003 (ip), vehicle: saline) was 103 % of control and the T/C (dose: 120.0 mg/kg/injection, schedule: Q01DX Z (ip), vehicle: saline) was 152 % of control. For the same compound, the T/C (dose: 150.0 mg/kg/injection, schedule: Q01DX Z (ip), vehicle: saline) was 156 % of control, the T/C (dose: 180.0 mg/kg/injection, schedule: Q01DX Z (ip), vehicle: carboxymethylcellulose (CMC)) was 105 % of control and the T/C (dose: 200.0 mg/kg/injection, schedule: Q04DX003 (ip), vehicle: saline) was 124 % of control. The T/C (dose: 225.0 mg/kg/injection, schedule: Q01DX Z (ip), vehicle: saline) was 115 % of control, the T/C (dose: 240.0 mg/kg/injection, schedule: Q01DX Z (ip), vehicle: other) was 124 % of control and the T/C (dose: 400.0 mg/kg/injection, schedule: Q04DX003 (ip), vehicle: saline) was 155 % of control. The T/C (dose: 480.0 mg/kg/injection, schedule: Q01DX Z (ip), vehicle: other) was 88 % of control.
In the case of `O=[N+]([O-])c1ccc2nocc2c1`, the T/C [12] is reported as 95 % of control.
`O=[N+]([O-])c1ccc(Sc2cccs2)c([N+](=O)[O-])c1` was tested, and the T/C [3] was 97 % of control, the T/C (dose: 100.0 mg/kg/injection, schedule: Q04DX003 (ip), vehicle: saline with Tween-80) was 105 % of control and the T/C [4] was 100 % of control. The T/C (dose: 200.0 mg/kg/injection, schedule: Q04DX003 (ip), vehicle: saline with Tween-80) was 93 % of control, the T/C [5] was 102 % of control and the T/C (dose: 400.0 mg/kg/injection, schedule: Q04DX003 (ip), vehicle: saline with Tween-80) was 93 % of control.
For `CN(C)/C=N\c1ncnc2c1ncn2C1OC(CO)C2OC(C)(C)OC21` (stereo unspecified), the T/C (dose: 100.0 mg/kg/injection, schedule: Q01DX005 (ip), vehicle: saline) was 104 % of control and the T/C (dose: 200.0 mg/kg/injection, schedule: Q01DX005 (ip), vehicle: saline) was 103 % of control.
In the case of `C/C=C/CC1(c2ccccc2)C(=O)NC(=S)NC1=O`, the T/C (dose: 75.0 mg/kg/injection, schedule: Q01DX001 (ip), vehicle: other) is reported as 108 % of control, the T/C (dose: 150.0 mg/kg/injection, schedule: Q01DX001 (ip), vehicle: other) is reported as 107 % of control and the T/C (dose: 300.0 mg/kg/injection, schedule: Q01DX001 (ip), vehicle: other) is reported as 103 % of control.
For `COc1cccc(/C=N\N=C\c2cccc(OC)c2OC)c1OC`, the T/C (dose: 50.0 mg/kg/injection, schedule: Q01DX009 (ip), vehicle: saline) was 120 % of control and the T/C (dose: 200.0 mg/kg/injection, schedule: Q01DX009 (ip), vehicle: saline) was 110 % of control.
With `O=C(COC(=O)c1ccccc1O)c1ccc(-c2ccccc2)cc1` the T/C [9] was 94 % of control, the T/C [10] was 88 % of control and the T/C [11] was 88 % of control.
